As a reminder, the IC50 is the concentration that gives 50% inhibition.

Read-outs that look alike come from different tables or passages of the source.

The target in assay [1] is T1, PKC β II (Homo sapiens, UniProt P05771).
T1 construct: purchased CALBIOCHEM
Description: PKC enzyme assay (BIOTRAK Protein kinase C enzyme assay system, 32P-ATP phosphorylation of peptide […]). The assay is classed as biochemical. Conditions: for Ratio α/β: IC50 PKC α / IC50 PKC β II.

The target of assay [2] is T2, PKC α (Homo sapiens, UniProt P17252).
T2 construct: purchased CALBIOCHEM
The description is as above. The assay is classed as biochemical. A digest of the protocol: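 Recombinant human PKC (400 ng/ml solution) phosphorylated the supplied peptide with [γ-32P]ATP in calcium, phosphatidylserine/PMA, DTT and Mg-ATP buffer, 15 min at 37°C. Compounds were tested at 1 nM-10 µM final. Phosphocellulose-bound radioactivity relative to DMSO gave inhibition, from which IC50 was calculated.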

Where [3] appears, read: Protein Kinase C, Human Recombinant, test substance 1 nM-10 µM, 37°C, 15 minutes, read-out: Inhibition of PKC activity IC50 PKC β II.
[4] abbreviates: Protein Kinase C, Human Recombinant, test substance 1 nM-10 µM, 37°C, 15 minutes, read-out: Inhibition of PKC activity IC50 PKC α.
The mark [5] stands for this setting: read-out: Inhibition of PKC activity IC50 PKC β II, Protein Kinase C, Human Recombinant, test substance 1 nM-10 µM, 37°C, 15 minutes.
[6] abbreviates: read-out: Inhibition of PKC activity IC50 PKC α, Protein Kinase C, Human Recombinant, test substance 1 nM-10 µM, 37°C, 15 minutes.

T1 sequence (P05771 other isoform, or with tags, fused parts or gaps): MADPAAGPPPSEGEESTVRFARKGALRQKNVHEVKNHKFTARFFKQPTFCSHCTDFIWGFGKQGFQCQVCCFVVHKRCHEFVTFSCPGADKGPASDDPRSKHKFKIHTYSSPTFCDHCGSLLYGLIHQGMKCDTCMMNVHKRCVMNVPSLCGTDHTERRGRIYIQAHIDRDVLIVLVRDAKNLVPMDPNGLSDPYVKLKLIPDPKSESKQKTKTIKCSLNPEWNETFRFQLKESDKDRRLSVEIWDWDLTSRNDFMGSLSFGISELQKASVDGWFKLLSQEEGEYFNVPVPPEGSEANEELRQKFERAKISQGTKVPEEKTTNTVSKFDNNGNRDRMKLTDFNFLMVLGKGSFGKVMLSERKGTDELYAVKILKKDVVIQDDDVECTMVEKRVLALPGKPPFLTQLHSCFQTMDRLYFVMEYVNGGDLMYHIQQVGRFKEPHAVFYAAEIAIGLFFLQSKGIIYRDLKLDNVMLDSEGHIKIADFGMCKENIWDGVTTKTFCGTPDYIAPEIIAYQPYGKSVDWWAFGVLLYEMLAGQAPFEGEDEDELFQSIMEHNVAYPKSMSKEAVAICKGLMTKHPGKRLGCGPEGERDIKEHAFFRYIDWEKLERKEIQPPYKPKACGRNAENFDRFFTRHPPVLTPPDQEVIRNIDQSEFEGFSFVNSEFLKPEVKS

`CN1CCC(Cn2cc(C3=C(Nc4ccccc4)C(=O)NC3=O)c3ccccc32)CC1` [Example 3-4, 3-[1-{(1-methylpiperidin-4-yl)methyl}-1H-indol-3-yl]-4-(phenylamino)-1H-pyrrole-2,5-dione]: the “Ratio α/β” value in assay [1] is recorded as 29. Further, the IC50 in assay [1] (setting [3]) came to 18 nM; in assay [2] (setting [4]), 518 nM.

As for `O=C1NC(=O)C(c2cn(CC3CCN(CC(O)CO)CC3)c3ccccc23)=C1Nc1ccccc1` (centres unmarked) [Example 3-5, 3-[1-{[1-(2,3-dihydroxypropyl)piperidin-4-yl]methyl}-1H-indol-3-yl]-4-(phenylamino)-1H-pyrrole-2,5-dione], the “Ratio α/β” value in assay [1] was found to be 56. The IC50 in assay [1] (setting [3]) was 29 nM; in assay [2] (setting [4]) it was 1630 nM.

As for `NC(=O)N1CCC(Cn2cc(C3=C(Nc4ccccc4)C(=O)NC3=O)c3ccccc32)CC1` [Example 3-6, 3-[1-{(1-carbamoylpiperidin-4-yl)methyl}-1H-indol-3-yl]-4-(phenylamino)-1H-pyrrole-2,5-dione], the “Ratio α/β” value in assay [1] is given as 34. The IC50 in assay [1] (setting [3]) is 108 nM; in assay [2] (setting [4]), 3660 nM.

For the molecule `Cl.N=C(N)N1CCC(Cn2cc(C3=C(Nc4ccccc4)C(=O)NC3=O)c3ccccc32)CC1` [Example 3-7, 3-[1-{(1-amidinopiperidin-4-yl)methyl}-1H-indol-3-yl]-4-(phenylamino)-1H-pyrrole-2,5-dione hydrochloride], the “Ratio α/β” value in assay [1] was determined as 46. The IC50 in assay [1] (setting [3]) was found to be 56 nM; in assay [2] (setting [4]), 2560 nM.

Regarding `O=C1NC(=O)C(c2c3n(c4ccccc24)CCC(CO)C3)=C1Nc1ccccc1` (centres unmarked) [Example 4-1, 3-[8-hydroxymethyl-6,7,8,9-tetrahydropyrido[1,2-a]indol-10-yl]-4-(phenylamino)-1H-pyrrole-2,5-dione], the “Ratio α/β” value in assay [1] is recorded as 61. Moreover, the IC50 turned out to be 14 nM in assay [1] (setting [3]) and 852 nM in assay [2] (setting [4]).

`CN(C)CC1CCn2c(c(C3=C(Nc4ccccc4)C(=O)NC3=O)c3ccccc32)C1` (centres unmarked) [Example 4-2, 3-[8-(dimethylaminomethyl)-6,7,8,9-tetrahydropyrido[1,2-a]indol-10-yl]-4-(phenylamino)-1H-pyrrole-2,5-dione]: in assay [1], the “Ratio α/β” value worked out at 51. The IC50 in assay [1] (setting [3]) came to 5 nM; in assay [2] (setting [4]) it was 257 nM.

Consider `O=C1NC(=O)C(c2c3n(c4ccccc24)CCC(Cn2ccnc2)C3)=C1Nc1ccccc1` (centres unmarked) [Example 4-3, 3-[8-(1-imidazolylmethyl)-6,7,8,9-tetrahydropyrido[1,2-a]indol-10-yl]-4-(phenylamino)-1H-pyrrole-2,5-dione], for which the IC50 in assay [1] was found to be 16 nM; in assay [2] it was 1630 nM.

Regarding `CCN(C)C[C@H]1CCn2c(c(C3=C(Nc4ccccc4)C(=O)NC3=O)c3ccccc32)C1` [Example 4-24], the “Ratio α/β” value in assay [1] is 68. Besides, the IC50 amounted to 3 nM in assay [1] (setting [5]) and 204 nM in assay [2] (setting [6]).

`O=C1NC(=O)C(c2c3n(c4ccccc24)CC[C@H](CN2CCOCC2)C3)=C1Nc1ccccc1` [Example 4-26]: the “Ratio α/β” value in assay [1] amounted to 85. The figures for the IC50 in assay [1] (setting [5]) and in assay [2] (setting [6]) were 9 nM and 768 nM, respectively.

On to `O=C1NC(=O)C(c2c3n(c4ccccc24)CC(CN2CCC(O)CC2)C3)=C1Nc1ccccc1` (centres unmarked) [Example 4-27], for which the “Ratio α/β” value in assay [1] is 64. Further, the IC50 in assay [1] (setting [5]) was 13 nM; in assay [2] (setting [6]), 831 nM.

Consider `O=C1NC(=O)C(c2c3n(c4ccccc24)CC(CN2CCSCC2)C3)=C1Nc1ccccc1` (centres unmarked) [Example 4-28], for which the “Ratio α/β” value in assay [1] was determined as 134. Besides, the IC50 was found to be 25 nM in assay [1] (setting [5]) and 3360 nM in assay [2] (setting [6]).

With `O=C1NC(=O)C(c2c3n(c4ccccc24)CC[C@H](CN2CCSCC2)C3)=C1Nc1ccccc1` [Example 4-30], the “Ratio α/β” value in assay [1] amounted to 131. Further, the values for the IC50 in assay [1] (setting [5]) and in assay [2] (setting [6]) were 5 nM and 654 nM, respectively.

For the molecule `CCNCC1Cc2c(C3=C(Nc4ccccc4)C(=O)NC3=O)c3ccccc3n2C1` (centres unmarked) [Example 4-31], the “Ratio α/β” value in assay [1] is given as 64. The IC50 in assay [1] (setting [5]) stood at 3 nM; in assay [2] (setting [6]) it was 186 nM.

On to `CNCC1Cc2c(C3=C(Nc4ccc(F)cc4)C(=O)NC3=O)c3ccccc3n2C1` (centres unmarked) [Example 4-32], for which the “Ratio α/β” value in assay [1] is 60. Further, the results for the IC50 in assay [1] (setting [5]) and in assay [2] (setting [6]) were 4 nM and 228 nM, respectively.

With `CCNCC1Cc2c(C3=C(Nc4ccc(F)cc4)C(=O)NC3=O)c3ccccc3n2C1` (centres unmarked) [Example 4-33], in assay [1], the “Ratio α/β” value came out at 75. For the same molecule, the IC50 in assay [1] (setting [5]) is 4 nM; in assay [2] (setting [6]) it was 321 nM.

Regarding `O=C1NC(=O)C(c2c3n(c4ccccc24)CC(Cn2ccnc2)C3)=C1Nc1ccccc1` (centres unmarked) [Example 4-37], in assay [1], the “Ratio α/β” value was 85. The values for the IC50 in assay [1] (setting [5]) and in assay [2] (setting [6]) were 7 nM and 592 nM, respectively.

As to `O=C1NC(=O)C(c2c3n(c4ccccc24)CCCC(Cn2ccnc2)C3)=C1Nc1ccccc1` (centres unmarked) [Example 4-38], the “Ratio α/β” value in assay [1] turned out to be 244. Besides, the IC50 is 41 nM in assay [1] (setting [5]) and greater than 10000 nM in assay [2] (setting [6]).

As for `CCN(C)C[C@@H]1CCc2c(C3=C(Nc4ccccc4)C(=O)NC3=O)c3ccccc3n2C1` [Example 4-40], in assay [1], the IC50 is 6 nM and the “Ratio α/β” value is 93. Besides, in assay [2], the IC50 was determined as 557 nM.

For the molecule `CN(C)C[C@@H]1CCc2c(C3=C(Nc4ccccc4)C(=O)NC3=O)c3ccccc3n2C1` [Example 4-41], in assay [1], the “Ratio α/β” value is 74. Also, the figures for the IC50 in assay [1] (setting [3]) and in assay [2] (setting [6]) were 6 nM and 445 nM, respectively.

For the molecule `O=C1NC(=O)C(c2c3n(c4ccccc24)C[C@H](CN2CCOCC2)CC3)=C1Nc1ccccc1` [Example 4-42], in assay [1], the “Ratio α/β” value amounted to 121. In addition, the results for the IC50 in assay [1] (setting [5]) and in assay [2] (setting [6]) were 22 nM and 2660 nM, respectively.

On to `O=C1NC(=O)C(c2c3n(c4ccccc24)C[C@H](CO)C=C3)=C1Nc1ccccc1` [Example 4-43], for which the “Ratio α/β” value in assay [1] is listed as 107. For the same molecule, the IC50 was 7 nM in assay [1] (setting [5]) and 749 nM in assay [2] (setting [6]).

In the case of `NC(=O)c1cccc(NC2=C(c3c4n(c5ccccc35)C[C@H](CO)CC4)C(=O)NC2=O)c1` [Example 4-46], in assay [1], the “Ratio α/β” value is listed as 112. Besides, the IC50 in assay [1] (setting [5]) was 89 nM; in assay [2] (setting [6]), greater than 10000 nM.

In the case of `CCN(C)C[C@@H]1CCc2c(C3=C(Nc4cccc(SC)c4)C(=O)NC3=O)c3ccccc3n2C1` [Example 4-48], the “Ratio α/β” value in assay [1] was 74. In addition, the IC50 in assay [1] (setting [5]) is 34 nM; in assay [2] (setting [6]) it was 2530 nM.

`CCN(C)C[C@@H]1CCc2c(C3=C(Nc4ccc5c(c4)OCO5)C(=O)NC3=O)c3ccccc3n2C1` [Example 4-49]: in assay [1], the “Ratio α/β” value was found to be 82. For the same molecule, the IC50 in assay [1] (setting [5]) was found to be 33 nM; in assay [2] (setting [6]) it was 2710 nM.

For the molecule `CCN(CC)C[C@@H]1CCc2c(C3=C(Nc4ccccc4)C(=O)NC3=O)c3ccccc3n2C1` [Example 4-50], the “Ratio α/β” value in assay [1] is reported as 82. The results for the IC50 in assay [1] (setting [5]) and in assay [2] (setting [6]) were 6 nM and 494 nM, respectively.

As to `CCN(C)CC1CCc2c(C3=C(Nc4ccccc4)C(=O)NC3=O)c3ccccc3n2C1` (centres unmarked) [Example 4-51], the IC50 in assay [1] was determined as 7 nM; in assay [2], 708 nM. Also, the “Ratio α/β” value in assay [1] was determined as 101.

Regarding `O=C1NC(=O)C(c2c3n(c4ccccc24)C[C@@H](CN2CCOCC2)CC3)=C1Nc1ccccc1` [Example 4-52], the “Ratio α/β” value in assay [1] is given as 68. For the same molecule, the figures for the IC50 in assay [1] (setting [5]) and in assay [2] (setting [6]) were 57 nM and 3880 nM, respectively.

As to `O=C1NC(=O)C(c2c3n(c4ccccc24)C[C@@H](CO)C=C3)=C1Nc1ccccc1` [Example 4-53], the “Ratio α/β” value in assay [1] is on record as 106. For the same molecule, the IC50 in assay [1] (setting [5]) came out at 14 nM; in assay [2] (setting [6]), 1480 nM.

These data come from EP1120414A1, “DISUBSTITUTED MALEIMIDE COMPOUNDS AND MEDICINAL UTILIZATION THEREOF” (Japan Tobacco Inc., priority 1998, dated 2000).
